EP0316212B1 (priority 1987, dated 1989)
Like-named read-outs stand apart in the source and are kept apart here.

Assays:
[1] = system: Cellules B; assay: Proliferation of mouse B cells (3H-thymidine incorporation); type: cell-based, souris; details: for inhibition at 200 µg/mL: B-cell, read-out: pourcentage d'augmentation (+) ou d'inhibition (-) de la prolifération
Description: (§1) Les anticorps utilisés sont des anticorps monoclonaux (AM) naturels (N5-12, N5-17, MO-1, 62-1, D-23) et proviennent d'hybridomes préparés par fusion des cellules de rate de souris n'ayant reçu aucune immunisation au préalable ni aucune stimulation mitogénique, avec le myélome de souris X63-Ag8. Les hybridomes TNP11 et TNP9 proviennent de fusion des cellules de rate de souris immunisées avec du Ficoll-TNP. Ils ont été maintenus en culture dans le milieu RPMI complet contenant 10% de sérum de veau foetal. Les hybridomes ont été injectés à des souris Balb/c préalablement traitées au pristane dans le but d'obtenir des ascites. Les AM ont été utilisés en tant que surnageants de culture ou en tant qu'ascites ou après isolement par chromatographie d'affinité sur une colonne de DNP-Sépharose. Ces anticorps ont été testés par test immunoenzymatique sur différents antigènes immobilisés sur des plaques de polystyrène et révélés par un anticorps anti-Ig de souris couplé à la β-galactosidase.
(§2) Le TNP a été couplé à la sérumalbumine bovine (BSA) par la méthode de Little & Eisen : 1ml de BSA à 20mg/ml dans le tampon carbonate-bicarbonate, 0,1M, pH 9,5, est ajouté à 1ml d'une solution d'acide trinitrobenzène sulfonique à 2 mg/ml dans le même tampon. La réaction est arrêtée après 30 à 120 minutes selon la substitution voulue par élimination de l'excès de réactifs sur échangeur d'ions (Dowex 1 x 4) puis dialyse. Des préparations de BSA substituée avec soit 14 ou 30 molécules de TNP par molécule de BSA (TNP₁₄-BSA ou TNP₃₀-BSA) ont été utilisées.
(§3) Le DNP-Glycine (DNP-Gly) et le DNP-Lysine (DNP-Lys) proviennent des Laboratoires Sigma et sont solubilisés directement dans le milieu de culture.
(§4) Les cellules proviennent de rate ou de thymus de souris. Les souris sont tuées par dislocation cervicale et leur rate ou leur thymus prélevé stérilement sont déposés dans du milieu RPMI. Les cellules sont dissociées, lavées une fois avec du milieu puis les globules rouges sont lysés au chlorure d'ammonium (0,9%) pendant 1 minute à froid puis les cellules sont relavées dans le milieu complet.
(§5) Les sous-populations de cellules B ou T sont ensuite séparées comme suit : • Sous-population T : les cellules T sont obtenues à partir de la population de cellules de la rate par élimination des cellules portant des Ig à leur surface (sous-population B) sur des anticorps anti-Ig de souris immobilisés soit sur des billes magnétiques (Magnogel)® soit sur des boites de Pétri. • Sous-population B : les cellules B sont obtenues après détachement mécanique des supports dur lesquels elles étaient fixées par l'intermédiaire des anticorps anti-Ig (après l'isolement des cellules T), ou après élimination de la sous-population des cellules T de la population totale des cellules de rate par un traitement avec un anticorps anti-cellules T suivi de complément de cobaye. • Thymocytes : les thymocytes sont dissociés dans le RPMI et les cellules isolées sont lavées dans le milieu complet avant d'être mises en culture.
(§6) Le milieu de culture utilisé est du RPMI 1640 contenant du sérum de veau foetal (5%), du pyruvate de sodium (1mM), de la L-glutamine (1mM), du 2-mercaptoethanol (0,05 mM), de la pénicilline (100»g/ml) et de la streptomycine (50»g/ml).
(§7) 2x10⁵ cellules de chaque population cellulaire ou 4x10⁵ de cellules de rate non fractionnées sont distribuées sous un volume final de 200»l dans des boîtes de culture de 96 puits à fond plat en présence ou non des différents stimulateurs (ou mitogènes)(40»g/ml de lipopolysaccharide W Salmonella typhosa 2»g/ml de concanavaline A, ou des surnageants de culture contenant les anticorps monoclonaux à différentes dilutions ou une solution de TNP-BSA à des concentrations finales allant de 200ng à 200»g/ml). Les cultures sont effectuées pendant 48 à 96 heures à 37°C dans une atmosphère de 5% de CO2.
(§8) Six à huit heures avant la fin de la culture, 100»l de surnageant sont prélevés de chaque puits de culture afin d'être testés quant à leur contenu en anticorps. […]

[2] = system: Cellules T; assay: Proliferation of mouse T cells (3H-thymidine incorporation); type: cell-based, souris; details: for inhibition at 200 µg/mL: T-cell, read-out: pourcentage d'augmentation (+) ou d'inhibition (-) de la prolifération
Description: as §1, §2, §3, §4, §5, §6, §7, §8

[3] = system: virus de la chorioméningite lymphocytaire (CML); assay: organism not typed; type: cell-based; details: for % Inhibition: préincubés avec les cellules L929
[4] = system: virus de la chorioméningite lymphocytaire (CML); assay: organism not typed; type: cell-based; details: for % Inhibition: ajoutés après l'infection virale
[5] = system: VSV (Vesicular Stomatitis Virus); assay: microbe, parasite or virus in culture; type: cell-based
[6] = system: EMCV (Encephalomyocarditis Virus); assay: microbe, parasite or virus in culture; type: cell-based
[7] = 3 (µg/ml), LPS* (mitogène ajouté après 48 heures)
[8] = 12 (µg/ml), LPS* (mitogène ajouté après 48 heures)
[9] = 50 (µg/ml), LPS* (mitogène ajouté après 48 heures)
[10] = 200µg/ml, LPS* (mitogène ajouté après 48 heures)
[11] = 0,7 (µg/ml), conA* (mitogène ajouté après 48 heures)
[12] = 3 (µg/ml), conA* (mitogène ajouté après 48 heures)
[13] = 12 (µg/ml), conA* (mitogène ajouté après 48 heures)
[14] = 50 (µg/ml), conA* (mitogène ajouté après 48 heures)
[15] = 200µg/ml, conA* (mitogène ajouté après 48 heures)
[16] = Vesicular stomatitis virus, L929

Molecule: O=C(O)CNc1ccc([N+](=O)[O-])cc1[N+](=O)[O-] [DNP-glycine, DNP-Glycine]
- pourcentage d'augmentation (+) ou d'inhibition (-) de la prolifération [1, 7]: -7%
- pourcentage d'augmentation (+) ou d'inhibition (-) de la prolifération ([1]; 3 (µg/ml), M (milieu seul)): -25%
- pourcentage d'augmentation (+) ou d'inhibition (-) de la prolifération [1, 8]: -40%
- pourcentage d'augmentation (+) ou d'inhibition (-) de la prolifération ([1]; 12 (µg/ml), M (milieu seul)): -50%
- pourcentage d'augmentation (+) ou d'inhibition (-) de la prolifération [1, 9]: -64%
- pourcentage d'augmentation (+) ou d'inhibition (-) de la prolifération ([1]; 50 (µg/ml), M (milieu seul)): -60%
- inhibition at 200 µg/mL [1, 10]: -80%
- inhibition at 200 µg/mL ([1]; 200µg/ml, M (milieu seul)): -90%
- pourcentage d'augmentation (+) ou d'inhibition (-) de la prolifération ([2]; 0,7 (µg/ml), M (milieu seul)): +50%
- pourcentage d'augmentation (+) ou d'inhibition (-) de la prolifération [2, 11]: 0%
- pourcentage d'augmentation (+) ou d'inhibition (-) de la prolifération ([2]; 3 (µg/ml), M (milieu seul)): 0%
- pourcentage d'augmentation (+) ou d'inhibition (-) de la prolifération [2, 12]: -5%
- pourcentage d'augmentation (+) ou d'inhibition (-) de la prolifération ([2]; 12 (µg/ml), M (milieu seul)): 0%
- pourcentage d'augmentation (+) ou d'inhibition (-) de la prolifération [2, 13]: -4%
- pourcentage d'augmentation (+) ou d'inhibition (-) de la prolifération ([2]; 50 (µg/ml), M (milieu seul)): +30%
- pourcentage d'augmentation (+) ou d'inhibition (-) de la prolifération [2, 14]: -15%
- inhibition at 200 µg/mL ([2]; 200µg/ml, M (milieu seul)): 4%
- inhibition at 200 µg/mL [2, 15]: -45%
- inhibition at 10 µg/mL ([3]; L929): 25%
- inhibition at 30 µg/mL ([3]; L929): 80%
- inhibition at 60 µg/mL ([3]; L929): 15%
- inhibition at 120 µg/mL ([3]; L929): 30%
- inhibition at 240 µg/mL ([3]; L929): 25%
- inhibition at 480 µg/mL ([3]; L929): 55%
- inhibition at 10 µg/mL [4]: 10%
- inhibition at 30 µg/mL [4]: 17%
- inhibition at 60 µg/mL [4]: 34%
- inhibition at 120 µg/mL [4]: 36%
- inhibition at 240 µg/mL [4]: 54%
- inhibition at 480 µg/mL [4]: 63%
- inhibition du virus (result in words) ([4]; ajouté à la culture cellulaire après l'infection virale): peut inhiber le virus même s'il est ajouté à la culture cellulaire après l'infection virale
- inhibition at 30 µg/mL [5, 16]: 0%
- inhibition at 70 µg/mL [5, 16]: 0%
- inhibition at 150 µg/mL [5, 16]: 6%
- inhibition at 300 µg/mL [5, 16]: 38%
- inhibition at 600 µg/mL [5, 16]: 47%
- inhibition at 1200 µg/mL [5, 16]: 68%
- inhibition at 2400 µg/mL [5, 16]: 41%
- minimal effective concentration ([5]; Vesicular stomatitis virus, L929, 72 h, read-out: a un effet jusqu'à une concentration de): 1200 µg/mL
- minimal effective concentration ([6]; Cardiovirus A, L929, 24 h, read-out: séroneutralise jusqu'à une concentration de): 600 µg/mL
- inhibition at 30 µg/mL ([6]; Cardiovirus A, L929, 0,03 mg/ml): 0%
- inhibition at 300 µg/mL ([6]; Cardiovirus A, L929, 0,3 mg/ml): 32%
- inhibition at 600 µg/mL ([6]; Cardiovirus A, L929, 0,6 mg/ml): 62%
- inhibition at 70 µg/mL ([6]; Cardiovirus A, L929, 0,07 mg/ml): 0%
- inhibition at 150 µg/mL ([6]; Cardiovirus A, L929, 0,15 mg/ml): 20%
- inhibition at 1200 µg/mL ([6]; Cardiovirus A, L929, 1,2 mg/ml): 78%

Molecule: TNP-BSA
- pourcentage d'augmentation (+) ou d'inhibition (-) de la prolifération [1, 10]: +18%
- pourcentage d'augmentation (+) ou d'inhibition (-) de la prolifération ([1]; 200µg/ml, M (milieu seul)): +100%
- pourcentage d'augmentation (+) ou d'inhibition (-) de la prolifération [1, 7]: 0%
- pourcentage d'augmentation (+) ou d'inhibition (-) de la prolifération ([1]; 3 (µg/ml), M (milieu seul)): 0%
- pourcentage d'augmentation (+) ou d'inhibition (-) de la prolifération [1, 8]: 0%
- pourcentage d'augmentation (+) ou d'inhibition (-) de la prolifération ([1]; 12 (µg/ml), M (milieu seul)): 0%
- pourcentage d'augmentation (+) ou d'inhibition (-) de la prolifération [1, 9]: 0%
- pourcentage d'augmentation (+) ou d'inhibition (-) de la prolifération ([1]; 50 (µg/ml), M (milieu seul)): +50%
- pourcentage d'augmentation (+) ou d'inhibition (-) de la prolifération ([2]; 0,7 (µg/ml), M (milieu seul)): 0%
- pourcentage d'augmentation (+) ou d'inhibition (-) de la prolifération [2, 11]: -50%
- pourcentage d'augmentation (+) ou d'inhibition (-) de la prolifération ([2]; 200µg/ml, M (milieu seul)): +30%
- pourcentage d'augmentation (+) ou d'inhibition (-) de la prolifération [2, 15]: -50%
- pourcentage d'augmentation (+) ou d'inhibition (-) de la prolifération ([2]; 3 (µg/ml), M (milieu seul)): 0%
- pourcentage d'augmentation (+) ou d'inhibition (-) de la prolifération [2, 12]: -40%
- pourcentage d'augmentation (+) ou d'inhibition (-) de la prolifération ([2]; 12 (µg/ml), M (milieu seul)): +20%
- pourcentage d'augmentation (+) ou d'inhibition (-) de la prolifération [2, 13]: -20%
- pourcentage d'augmentation (+) ou d'inhibition (-) de la prolifération ([2]; 50 (µg/ml), M (milieu seul)): +18%
- pourcentage d'augmentation (+) ou d'inhibition (-) de la prolifération [2, 14]: -25%
- % Inhibition ([3]; 0.12 mg/ml): 0%
- % Inhibition ([3]; 0.25 mg/ml): 22%
- % Inhibition ([3]; 0.5 mg/ml): 48%
- % Inhibition ([3]; 1 mg/ml): 63%
- % Inhibition ([4]; 0.5 mg/ml): 0%
- % Inhibition ([4]; 1mg/ml): 17%
- % Inhibition ([5]; 0,03 mg/ml): 0%
- % Inhibition ([5]; 0,5 mg/ml): 12%
- % Inhibition ([5]; 0,06 mg/ml): 0%
- % Inhibition ([5]; 0,12 mg/ml): 0%
- % Inhibition ([5]; 0,25 mg/ml): 0%
- % Inhibition ([5]; 1,0 mg/ml): 15%
- % Inhibition ([5]; 2,0 mg/ml): 24%
- % Inhibition ([6]; 0,03 mg/ml): 0%
- % Inhibition ([6]; 0,5 mg/ml): 8%
- % Inhibition ([6]; 0,06 mg/ml): 0%
- % Inhibition ([6]; 0,12 mg/ml): 0%
- % Inhibition ([6]; 0,25 mg/ml): 0%
- % Inhibition ([6]; 1,0 mg/ml): 4%
- % Inhibition ([6]; 2,0 mg/ml): 14%
